Source: patent US7576128B2 (priority 2004, dated 2009)

What was measured:
male Syrian hamsters = assay: Animal model for inhibition of sebum production (hamster ear, HPLC of sebum components); format: in vivo; details: for % Reduction in CE: cholesterol ester; for % Reduction in CE / % Reduction in WE: 3 w/v% topical twice daily, five days a week, 4 weeks, difference from vehicle control; for Sum CE + WE: summation of CE and WE reductions; for % Reduction in WE: wax ester
Procedure: Luderschmidt et al describes an animal model for testing whether compounds are capable of modulating sebum secretion. Arch. Derm. Res. 258, 185-191 (1977). This model uses male Syrian hamsters, whose ears contain sebaceous glands. Selected compounds produced above were screened in this model.
Testing for sebum inhibition was carried out in the following manner. Male Syrian hamsters aged 9 to 10 weeks were introduced into the laboratory environment and acclimated for 2 weeks prior to use in the study. Each group consisted of 5 animals and were run in parallel with vehicle and positive controls. Prior to administration, 30mg of each compound was dissolved in 1 mL of Universal solvent (ethanol/propylene glycol (70/30%v/v) to achieve a final concentration of 3 w/v%.
Animals were dosed topically twice daily, five days a week, for 4 weeks. Each dose consisted of 25 micro liters of vehicle control or drug. The dose was applied to the ventral surfaces of both the right and left ears. All animals were sacrificed approximately 18-24 hours after the final dose. The right ears were collected from each animal and used for sebum analysis.
The ears were prepped for HPLC analysis in the following manner. One 8mm distal biopsy punch was taken, just above the anatomical “V” mark in the ear to normalize the sample area. The punch was pulled apart. The ventral biopsy surface (the area where the topical dose was directly applied to the sebaceous glands) was retained for testing and the dorsal surface of the biopsy punch was discarded.
HPLC analysis was carried out on an extract of the tissue sample. Tissue samples were contacted with 3ml of solvent (a 4:1 admixture of 2,2,4-trimethylpentane and isopropyl alcohol). The mixture was shaken for 15 minutes and stored overnight at room temperature, protected from light. The next morning 1 milliliter of water was added to the sample and shaken for 15 minutes. The sample was then centrifuged at approximately 1500 rpm for 15 minutes. Two ml of the organic phase (top layer) was transferred to a glass vial, dried at 37° C., under nitrogen, for approximately 1 hour, and then lyophilized for approximately 48 hours. The samples were then removed from the lyophilizer and each vial was reconstituted with 600 μl of solvent A (trimethylpentane/tetrahydrofuran (99:1). The samples were then recapped and vortexed for 5 minutes.
The results are reported as the reduction in cholesterol ester (CE) and wax ester (WE) production, when compared to the vehicle control.
Columns 1 and 2 identify the compound by structure and Example number. Columns 3 through 5 show the effect the compounds had on the -reduction of sebum components (CE and WE). The results are expressed as the difference from the vehicle control. A positive number reflects a decrease in the production of the sebum component being measured, i.e. cholesterol ester (CE) or wax ester (WE).

androgen receptor = target: T1, androgen receptor (Homo sapiens, UniProt P10275); assay: AR antagonist cell assay, MDA-MB453-MMTV clone 54-19 luciferase reporter; format: cell-based; details: MDA-MB453-MMTV clone 54-19, 100 pM DHT, 17 hr; mean of multiple tests; read-out: AR Cell IC50
T1 sequence (P10275 1-920 Q868H): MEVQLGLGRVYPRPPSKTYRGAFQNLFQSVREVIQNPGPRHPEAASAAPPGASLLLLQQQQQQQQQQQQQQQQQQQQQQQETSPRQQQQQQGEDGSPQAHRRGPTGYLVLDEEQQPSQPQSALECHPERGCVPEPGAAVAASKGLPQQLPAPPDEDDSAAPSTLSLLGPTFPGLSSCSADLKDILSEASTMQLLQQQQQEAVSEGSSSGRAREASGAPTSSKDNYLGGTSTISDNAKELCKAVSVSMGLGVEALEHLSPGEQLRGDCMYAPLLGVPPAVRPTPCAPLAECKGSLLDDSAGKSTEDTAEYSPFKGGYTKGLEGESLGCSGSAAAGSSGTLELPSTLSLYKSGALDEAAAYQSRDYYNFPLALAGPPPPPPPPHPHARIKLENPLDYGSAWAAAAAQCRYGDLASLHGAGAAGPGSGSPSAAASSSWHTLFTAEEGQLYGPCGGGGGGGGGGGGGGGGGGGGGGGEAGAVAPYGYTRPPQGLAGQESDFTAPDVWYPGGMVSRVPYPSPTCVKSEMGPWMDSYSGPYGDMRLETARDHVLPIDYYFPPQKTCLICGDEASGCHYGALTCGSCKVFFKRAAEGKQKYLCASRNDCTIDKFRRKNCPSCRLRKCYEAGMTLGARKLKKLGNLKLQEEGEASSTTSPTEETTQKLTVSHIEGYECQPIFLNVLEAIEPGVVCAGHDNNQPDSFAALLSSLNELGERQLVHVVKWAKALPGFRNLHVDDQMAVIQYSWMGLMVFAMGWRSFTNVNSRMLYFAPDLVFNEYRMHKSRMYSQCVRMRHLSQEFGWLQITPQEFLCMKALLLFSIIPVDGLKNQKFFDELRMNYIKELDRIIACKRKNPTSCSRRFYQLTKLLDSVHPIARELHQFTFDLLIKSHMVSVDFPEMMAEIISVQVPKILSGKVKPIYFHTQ
Procedure: The compounds ability to antagonize the effects of androgen on the androgen receptor were determined in a whole cell assay as described immediately below.
This cell line is a stable transfected cell line with MDA-MB453 cell background (a human breast tumor cell line expressing androgen receptor). A MMTV minimal promoter containing ARE was first cloned in front of a firefly luciferase reporter gene. Then the cascade was cloned into transfection vector pUV120puro. Electroporation method was used for transfecting MDA-MB-453 cell. Puromycin resistant stable cell line was selected.
• 1. Cells are maintained in culture medium, splitting cells when they reach 80-90% confluence • 2. To test compounds, 10,000 cells/well are plated to opaque 96 cell culture plate in 100 ul/well plating medium, culture for overnight at 37° C. in cell culture incubator • 3. Carefully remove plating medium, then add 80 ul/well of pre-warmed assay medium, add 10 ul/well testing compound (final concentration at) 1000 nM, 200 nM, 40 nM, 8 nM, 1.6 nM, and 0.32 nM), incubate at 37° C. for 30 minutes • 4. Add 10 ul/well freshly prepared DHT (final concentration at 100 pM) to each well, incubate at 37° C. for 17 hr (overnight) • 5.
The results are reported as the mean of multiple tests as described below (the numbers of tests are indicated in the footnote). N.D. denotes that the compound was not tested.

C[C@H](O)CC[C@H](C)Oc1ccc(C#N)c(C(F)(F)F)c1 [Example 23, (1S,4S)-4-(4-Hy-droxy-1-methylpentyl-oxy)-2-tri-fluoromethyl-benzonitrile]
% Reduction in CE (male Syrian hamsters): 67% | Sum CE + WE (male Syrian hamsters): 154% | % Reduction in WE (male Syrian hamsters): 87% | IC50 (androgen receptor): 0.132 µM

CCCCC(COc1ccc(C#N)c(C(F)(F)F)c1)C(C)O (centres unmarked) [Example 15, 4-[2-(1-Hydroxy-ethyl)-hexyloxy]-2-tri-fluoromethyl-benzonitrile]
% Reduction in CE (male Syrian hamsters): 54% | Sum CE + WE (male Syrian hamsters): 128% | % Reduction in WE (male Syrian hamsters): 74% | IC50 (androgen receptor): 0.124 µM
